Measured values: patent US20060019907A1, “Guggulsterone: an inhibitor of nuclear factor - kappaB and IkappaBalpha kinase activation and uses thereof” (Research Development Foundation, priority 2004, published 2006)

Columns and labels:
IκBα = test: TNF-dependent IκBα degradation and phosphorylation, Western blot; format: cell-based, human; conditions: H1299; 50 μM, 4 hours, 0.1 nM TNF
Method: (§1) Western Blot Analysis: To determine the effect of guggulsterone on TNF-dependent IκBα phosphorylation, IκBα degradation, p65 translocation and p65 phosphorylation, cytoplasmic extracts were prepared as previously described (Majumdar et al., 2001) from H1299 (2×10^6/ml) pretreated with 50 μM guggulsterone for 4 h and then exposed to 0.1 nM TNF for various times. Thirty micrograms of cytoplasmic protein was resolved on 10% SDS-PAGE gel, transferred to a nitrocellulose membrane, blocked with 5% non-fat milk, and probed with specific antibody against IκBα, posphorylated IκBα, p65 and phosphorylated p65. To determine the expression of cyclin D1, COX-2, MMP-9, clAP-1, xlAP, TRAF1, Bcl-2, Bfl-1, cFLIP, and survivin, whole-cell extracts were prepared from treated cells (2×10^6 cells in 2 ml medium), 30-50 μg protein was resolved on SDS-PAGE gel and probed by Western blot with specific antibodies as per manufacturer's recommended protocol. The blots were washed, exposed to HRP-conjugated secondary antibodies for 1 hour, and finally detected by ECL reagent (Amersham Pharmacia Biotech.). The bands were quantitated using a Personal Densitometer Scan v1.30 using IMAGEQUANT™ software version 3.3 (Molecular Dynamics).

p65 = test: TNF-induced phosphorylation and nuclear translocation of p65; format: cell-based, human; conditions: H1299, 50 μM, 4 hours, 0.1 nM TNF
Method: as §1
Immunolocalization of NF-κB p65: The effect of guggulsterone on […] nuclear translocation of p65 was examined using an immunocytochemical method as described previously (Bharti et al., 2003). Stained slides were mounted with mounting medium (Sigma Chemical) and analyzed under an epifluorescence microscope (Labophot-2; Nikon, Tokyo, Japan). Images were captured using a PHOTOMETRICS COOLSNAP CF™ color camera (Nikon, Lewisville, Tex.) and METAMORPH™ version 4.6.5 software (Universal Imaging, Downingtown, Pa.).

PARP = PARP cleavage assay, TNF plus guggulsterone; format: cell-based, human; conditions: KBM-5, serum starved 24 hours; TNF in combination with guggulsterone
Method: PARP cleavage assay: For detection of cleavage products of PARP, whole-cell extracts were prepared by subjecting the guggulsterone-treated cells to lysis in lysis buffer (20 mM Tris, pH 7.4; 250 mM NaCI; 2 mM EDTA, pH 8.0; 0.1% Triton-X 100; 0.01 μg/ml aprotinin; 0.005 μg/ml leupeptin; 0.4 mM PMSF; and 4 mM NaVO4). Lysates will be spun at 14000 rpm for 10 min to remove insoluble material, resolved by 10% SDS PAGE, and probed with PARP antibodies. PARP is cleaved from the 116-kDa intact protein into 85-kDa and […] peptide products. To detect cleavage products of procaspase-3 and procaspase-9, whole-cell extracts will be resolved by 10% SDS PAGE and probed with appropriate antibodies.

IKK = test: RANKL-induced IKK activity, IKK assay; format: cell-based, mouse; conditions: RAW 264.7
RAW 264.7 cells = test: Tumor cell (MDA-MB-468, U266) co-incubation-induced osteoclastogenesis; format: cell-based, mouse; conditions: RAW 264.7 co-incubation, GS 5 μM
U937 cells [1] = test: Cell cycle, flow cytometric analysis; format: cell-based, human; conditions: 10 μM, propidium iodide flow cytometry
Method: Flow cytometric analysis. To determine the effect of guggulsterone on the cell cycle, U937 cells were treated for different times, washed, and fixed with 70% ethanol. After an overnight incubation at −20° C., cells were washed with PBS, and then suspended in staining buffer (Propidium iodide, 10 μg/ml; Tween-20, 0.5%; RNase, 0.1% in PBS). The cells were analyzed using a FACS Vantage flow cytometer that uses CellQuest acquisition and analysis programs (Becton Dickinson, San Jose, Calif.). Gating was set to exclude cell debris, cell doublets, and cell clumps.

Akt = Akt activation in U937 cells, Western blot; format: cell-based, human; conditions: 10 μM
Method: Western blot analysis. Thirty to fifty micrograms of cytoplasmic, nuclear or whole cell protein was resolved on 10% SDS-PAGE gel, transferred to a nitrocellulose membrane, blocked with 5% non-fat milk, and probed with specific antibodies as per manufacturer's recommended protocol. The blots were washed, exposed to HRP-conjugated secondary antibodies for 1 h, and detected by ECL reagent (Amersham Pharmacia Biotechnology, Piscataway, N.J.). The bands were quantitated using a Personal Densitometer Scan v1.30 using Imagequant software version 3.3 (Molecular Dynamics).

U937 cells [2] = test: Thymidine incorporation assay; format: cell-based, human; conditions: 72 h
Method: Thymidine incorporation assay. The antiproliferative effects of guggulsterone were also monitored by the thymidine incorporation method. For this, 5000 cells in 100 μL medium were cultured in triplicate in 96-well plates in the presence or absence of guggulsterone for 72 hours. At 6 hours before the completion of experiment, cells were pulsed with 0.5 μCi (0.0185 MBq) ^3H-thymidine, and the uptake of ^3H-thymidine was monitored by means of a Matrix-9600 β-counter (Packard Instruments, Downers Grove, Ill.).

JNK = JNK assay in MKK4 mutants and wild type cells; format: cell-based; conditions: 10 μM
Method: JNK kinase assay. To determine the effect of guggulsterone on the kinase activity of JNK, JNK complex from whole-cell extracts was precipitated with antibody against JNK1, followed by treatment with protein A/G-Sepharose beads (Pierce, Rockford, Ill.). After 2 h of incubation, the beads were washed with lysis buffer and then assayed in kinase assay mixture containing 50 mM HEPES (pH 7.4), 20 mM MgCl2, 2 mM dithiothreitol, 20 μCi of [γ-^32P]ATP, 10 μM unlabeled ATP, and 2 μg of substrate GST-c-Jun (1-79). The immunocomplex was incubated at 30° C. for 30 min and then boiled with SDS sample buffer for 5 min. Finally, the protein was resolved on 10% SDS-PAGE, the gel was dried, and the radioactive bands were visualized using the PhosphorImager. To determine the total amount of JNK1 in each sample, whole-cell extracts were subjected to Western blot analysis using anti-JNK1 antibody.

[3] = test system: inducible nitric oxide synthetase (iNOS); conditions: Meselhy et al., 2003; cited from earlier work

CC=C1C(=O)C[C@H]2[C@@H]3CCC4=CC(=O)CC[C@]4(C)[C@H]3CC[C@]12C [guggulsterone, 4,17(20)-pregnadiene-3,16-dione]
TNF-induced IκBα degradation (IκBα): TNF had no effect on IκBα degradation | TNF-induced IκBα phosphorylation (IκBα): almost completely suppressed IκBα phosphorylation | TNF-induced nuclear translocation of p65, Western blot (p65): abolished the TNF-induced nuclear translocation of p65 | TNF-induced nuclear translocation of p65, immunocytochemistry (p65): abrogated the p65 translocation | TNF-induced phosphorylation of p65 (p65; Western blot): suppressed p65 phosphorylation almost completely | caspase-induced cleavage of PARP activated by TNF (PARP): enhanced the caspase-induced cleavage of PARP activated by TNF | RANKL-induced IKK activity (phosphorylation of GST-IκBα) (IKK; 50 μM, 4 h pre-incubation, 10 nM RANKL): could not phosphorylate GST-IκBα upon RANKL treatment | expression of IKK-α and IKK-β (IKK; Western blot): did not alter the expression of IKK-α and IKK-β | osteoclast differentiation induced by co-incubation of U266 cells with macrophages (RAW 264.7 cells): induced osteoclast differentiation was suppressed | MDA-MB-468 cells-induced and U266 cells-induced osteoclast differentiation (RAW 264.7 cells; 5 days): suppressed osteoclastogenesis | cell cycle arrest (U937 cells [1]): arrested the cell cycle in S-phase | Akt activation (Akt): suppression of Akt-activation | proliferation of U937 cells, 3H-thymidine incorporation (U937 cells [2]): inhibits proliferation in U937 cells | guggulsterone induced JNK activation, dependence on MKK4 (JNK): MKK4 is required for guggulsterone induced JNK activation | iNOS expression induced by LPS in macrophages [3]: inhibiting inducible nitric oxide synthetase (iNOS) expression
